Patent publication US9133457B2, “Methods of incorporating amino acid analogs into proteins” (California Institute of Technology, priority 2004, dated 2015)
Like-named read-outs stand apart in the source and are kept apart here.

Legend:
[1] = biological target: T1, E. coli leucyl-tRNA synthetase (LeuRS) (Escherichia coli, UniProt P07813); settings: in vitro; cited from earlier work
T1 construct: endogenous in cells; host or cells: E. coli expression strain (Phe/Leu auxotroph) carrying ytRNAPheCAA and modified yeast PheRS

[2] = biological target: T1, E. coli leucyl-tRNA synthetase (LeuRS); test: incorporation of Nal into mDHFR at Leu codon UUG, effect of LeuRS inhibitor; type: cell-based
Text: In this example, multiple-site-specific incorporation of an unnatural amino acid into murine dihydrofolate reductase (mDHFR) in response to a sense codon was realized by use of an E. coli strain outfitted with a yeast transfer RNA (ytRNA^pheCAA) capable of Watson-Crick base-pairing with the leucine (Leu) codon UUG. ytRNA^pheCAA was charged with L-3-(2-naphthyl)alanine (Nal) by a co-expressed modified yeast phenylalanine tRNA synthetase. See schematic diagram in FIG. 3.
Incomplete occupancy of the UUG codon by Nal is due at least in part to competition with leucine-charged E. coli tRNA^Leus. In an attempt to reduce competition by E. coli tRNA^Leus, use of a mutant E. coli strain lacking tRNA^LeuCAA and addition of an E. coli leucyl-tRNA synthetase (LeuRS) inhibitor were tested. A Phe/Leu double auxotrophic strain derived from the tRNA^LeuCAA-deficient strain XA106 (CGSC at Yale) was tested for incorporation of Nal at the UUG codon.
Replacement of Leu by Nal was detected in MALDI mass spectra of tryptic fragments of mDHFR (FIG. 4). […] Furthermore, Nal incorporation was not detected when UUG was mutated to UUA in Peptide 3. No signal corresponding to Peptide 4CUG (Nal) was detected, whereas that corresponding to Peptide 4CUG was detected at 904.54 mass units. […]

[3] = biological target: T2, mu-yPheRS (modified yeast PheRS, Thr415Gly) (Saccharomyces cerevisiae, UniProt P15625, T415G); test: adenosine triphosphate-pyrophosphate exchange assay (amino acid activation); type: biochemical; settings: larger than Phe
T2 construct: made in house
Protocol: The modified yeast PheRS (mu-yPheRS) was prepared by introduction of a Thr415Gly mutation in the α-subunit of the synthetase (Datta el al., J. Am. Chem. Soc. 124: 5652, 2002). The kinetics of activation of Nal and Phe by mu-yPheRS were analyzed in vitro via the adenosine triphosphate-pyrophosphate exchange assay.

[4] = test system: E. coli strain (K10-F6); test: incorporation of Nal into mDHFR at Phe codons UUU/UUC (amino acid analysis, MALDI of tryptic digests); type: cell-based
Protocol: In this construct, four of the Phe residues of mDHFR are encoded by UUC codons, five by UUU. A full-length copy of the mu-yPheRS gene, under control of a constitutive tac promoter, was inserted into pQE16. […] E. coli transformants harboring these two plasmids were incubated in Phe-depleted minimal medium supplemented with 3 mM Nal and were then treated with 1 mM IPTG to induce expression of mDHFR. Although the E. coli strain (K10-F6) used in this study is a Phe auxotroph, (see Furter, supra) a detectable level of mDHFR was expressed even under conditions of nominal depletion of Phe, probably because of release of Phe through turnover of cellular proteins. In negative control experiments, mDHFR was expressed in the absence of either ytRNA^PheAAA or mu-yPheRS. […] For mDHFR isolated from the strain harboring the heterologous pair, amino acid analysis indicated replacement of 4.4 of the 9 Phe residues by Nal.
Tryptic digests of mDHFR were analyzed to determine the occupancy of individual Phe sites. Peptide 1UUU (residues 184-191, […], SEQ ID NO: 1) contains a Phe residue encoded as UUU, whereas peptides 2UUC (residues 62-70, […], SEQ ID NO: 2) and 3UUC (residues 26-39, […], SEQ ID NO: 3) each contain a Phe residue encoded as UUC. In the absence of Nal, peptide 1UUU was detected with a monoisotopic mass of 1105.55 Da, in accord with its theoretical mass (FIG. 2A). […] As described earlier, each substitution of Nal for Phe leads to a mass increase of 50.06 Da; the observed shift in mass is thus consistent with replacement of Phe by Nal in response to the UUU codon. Liquid chromatography-tandem mass spectrometry (LC/MS/MS) confirmed this assignment.
Similar analyses were conducted for peptides 2UUC and 3UUC. In the absence of added Nal, the observed masses of peptides 2UUC and 3UUC are 1135.61 (FIG. 2A) and 1682.89 Da (FIG. 2D), respectively, as expected. […] Nal incorporation thus appears to be rare at UUC codons under the conditions used here for protein expression.
There is at least a formal possibility that the observed codon-biased incorporation of Nal might be dependent on codon context rather than, or in addition to, codon identity. MALDI sampling errors are also possible. To test these possibilities, a mutant mDHFR gene was prepared by mutating the UUU codon in peptide 1UUU to UUC, and the UUC codon in peptide 3UUC to UUU. In the resulting peptide 1UUC, the signal indicating incorporation of Nal was only slightly above background (FIG. 2C), whereas for peptide 3UUU, Nal is readily detected (FIG. 2F). Nal incorporation is unambiguously codon-biased to UUU.

[5] = test system: Escherichia coli; settings: cited from earlier work
[6] = degree similar to Ceredase; cited from earlier work
[7] = cited from earlier work
[8] = modified using conventional amine-PEGylation; cited from earlier work

T1 sequence (P07813 whole entry): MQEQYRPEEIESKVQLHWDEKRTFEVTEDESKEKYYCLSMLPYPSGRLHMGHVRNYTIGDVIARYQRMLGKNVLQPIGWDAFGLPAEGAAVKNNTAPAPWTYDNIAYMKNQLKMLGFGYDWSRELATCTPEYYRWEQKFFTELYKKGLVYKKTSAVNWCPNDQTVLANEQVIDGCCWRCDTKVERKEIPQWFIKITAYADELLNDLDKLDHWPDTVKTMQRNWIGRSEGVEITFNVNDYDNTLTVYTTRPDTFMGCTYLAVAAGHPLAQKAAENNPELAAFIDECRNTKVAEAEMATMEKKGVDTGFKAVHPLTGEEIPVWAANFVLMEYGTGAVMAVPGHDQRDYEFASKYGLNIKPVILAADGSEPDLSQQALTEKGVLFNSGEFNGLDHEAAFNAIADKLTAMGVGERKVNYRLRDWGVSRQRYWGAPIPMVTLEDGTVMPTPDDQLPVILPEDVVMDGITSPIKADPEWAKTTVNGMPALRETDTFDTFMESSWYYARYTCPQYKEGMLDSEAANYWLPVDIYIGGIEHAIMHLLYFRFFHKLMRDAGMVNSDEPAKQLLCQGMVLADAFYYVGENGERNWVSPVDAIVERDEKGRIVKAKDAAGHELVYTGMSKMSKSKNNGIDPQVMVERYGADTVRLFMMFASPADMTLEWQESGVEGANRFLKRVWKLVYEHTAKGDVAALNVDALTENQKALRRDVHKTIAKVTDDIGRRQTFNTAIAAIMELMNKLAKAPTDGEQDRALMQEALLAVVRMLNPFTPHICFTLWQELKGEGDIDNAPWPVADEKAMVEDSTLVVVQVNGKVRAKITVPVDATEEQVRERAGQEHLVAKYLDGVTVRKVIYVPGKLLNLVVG
T2 sequence (P15624 whole entry): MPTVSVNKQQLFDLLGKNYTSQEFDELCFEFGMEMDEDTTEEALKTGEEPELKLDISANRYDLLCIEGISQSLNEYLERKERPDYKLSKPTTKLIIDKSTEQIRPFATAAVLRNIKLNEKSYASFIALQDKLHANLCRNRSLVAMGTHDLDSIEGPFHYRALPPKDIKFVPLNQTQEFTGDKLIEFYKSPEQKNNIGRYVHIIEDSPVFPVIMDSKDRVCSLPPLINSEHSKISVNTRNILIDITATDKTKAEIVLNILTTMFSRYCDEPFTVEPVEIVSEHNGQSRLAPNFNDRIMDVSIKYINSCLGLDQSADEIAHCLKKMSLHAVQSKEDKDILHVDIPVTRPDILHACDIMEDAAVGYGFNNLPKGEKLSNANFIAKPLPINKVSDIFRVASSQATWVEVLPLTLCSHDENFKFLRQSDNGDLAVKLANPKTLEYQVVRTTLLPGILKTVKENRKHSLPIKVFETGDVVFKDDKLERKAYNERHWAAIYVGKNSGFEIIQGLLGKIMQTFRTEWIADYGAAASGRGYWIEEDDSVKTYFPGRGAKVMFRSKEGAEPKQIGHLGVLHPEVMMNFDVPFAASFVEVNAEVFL
T2 sequence (P15625 whole entry T415G): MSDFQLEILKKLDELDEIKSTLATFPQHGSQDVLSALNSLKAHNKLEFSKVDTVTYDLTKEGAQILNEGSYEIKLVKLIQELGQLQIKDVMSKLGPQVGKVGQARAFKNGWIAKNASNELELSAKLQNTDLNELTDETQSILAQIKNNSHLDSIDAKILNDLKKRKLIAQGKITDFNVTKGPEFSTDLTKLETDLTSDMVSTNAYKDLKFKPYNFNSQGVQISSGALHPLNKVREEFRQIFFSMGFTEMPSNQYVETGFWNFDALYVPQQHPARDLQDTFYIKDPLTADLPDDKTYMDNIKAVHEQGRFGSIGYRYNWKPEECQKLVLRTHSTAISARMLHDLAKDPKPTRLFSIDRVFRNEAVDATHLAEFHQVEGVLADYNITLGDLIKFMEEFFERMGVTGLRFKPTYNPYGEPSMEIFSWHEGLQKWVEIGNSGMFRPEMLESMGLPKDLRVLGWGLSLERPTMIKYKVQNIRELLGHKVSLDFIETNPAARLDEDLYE

Molecule: CN(C)CC(N)C(=O)O (racemic) [AZL, 4-Aza-DL-leucine]
- inhibition of E. coli LeuRS [1]: competitive inhibitor
- effect on occupancy of the UUG codon by Nal ([2]; 1 mM AZL in the media): enhanced occupancy

Molecule: N[C@@H](Cc1ccc2ccccc2c1)C(=O)O [Nal, L-3-(2-naphthyl)alanine]
- specificity constant relative to that for Phe [3]: 8 fold
- Nal incorporation at the UUU codon ([4]; MALDI signal intensities, peptide 1UUU): dominant
- Nal incorporation at UUC codons ([4]; MALDI, peptides 2UUC and 3UUC): rare
- Phe residues of mDHFR replaced by Nal ([4]; of the 9 Phe residues, strain harboring ytRNA^PheAAA and mu-yPheRS, 3 mM Nal, amino acid analysis): 4.4
- incorporation of Nal into mDHFR ([4]; without ytRNA^PheAAA or mu-yPheRS, amino acid analysis): no incorporation
- re-assignment of the UUG codon to Nal ([2]; ytRNA^PheCAA and modified yeast PheRS, mass spectrometry of tryptic digests): partially re-assigned

Molecule: CC1(C)S[C@@H]2[C@H](NC(=O)[C@H](N)c3ccccc3)C(=O)N2[C@H]1C(=O)O [ampicillin]
- IC50 of cells ([5]; SctRNAGlnCUA coexpressed with ScGlnRS): about 500 μg/mL
- IC50 of cells ([5]; only SctRNAGlnCUA expressed): 20 µg/mL

B1: Cerezyme: recombinant analogue of the human enzyme β-Glucocerebrosidase, imiglucerase for injection (protein, UniProt P04062 40-536, looked up, variant R495H)
Lysosomal acid …: ARPCIPKSFGYSSVVCVCNATYCDSFDPPTFPALGTFSRYESTRSGRRMELSMGPIQANHTGTGLLLTLQPEQKFQKVKGFGGAMTDAAALNILALSPPAQNLLLKSYFSEEGIGYNIIRVPMASCDFSIRTYTYADTPDDFQLHNFSLPEEDTKLKIPLIHRALQLAQRPVSLLASPWTSPTWLKTNGAVNGKGSLKGQPGDIYHQTWARYFVKFLDAYAEHKLQFWAVTAENEPSAGLLSGYPFQCLGFTPEHQRDFIARDLGPTLANSTHHNVRLLMLDDQRLLLPHWAKVVLTDPEAAKYVHGIAVHWYLDFLAPAKATLGETHRLFPNTMLFASEACVGSKFWEQSVRLGSWDRGMQYSHSIITNLLYHVVGWTDWNLALNPEGGPNWVRNFVDSPIIVDITKDTFYKQPMFYHLGHFSKFIPEGSQRVGLVASQKNDLDAVALMHPDGSAVVVVLNRSSKDVPLTIKDPAVGFLETISPGYSIHTYLWHRQ
modifications: imiglucerase
notes: recombinant analogue of the human enzyme β-Glucocerebrosidase, imiglucerase for injection
- clinical effect [6]: improved anemia and thrombocytopenia, reduced spleen and liver size, and decreased cachexia
- time to steady-state enzymatic activity ([7]; during one-hour intravenous infusions): ≤ 30 min
- plasma clearance, mean±S.D. ([7]; in vivo): 14.5 ± 4.0 mL/min/kg
- volume of distribution corrected for weight, mean±S.D. ([7]; in vivo): 0.12 ± 0.02 L/kg

B2: GCSF: GCSF modified using conventional amine-PEGylation technologies (conjugate, UniProt P09919 31-207, looked up)
Granulocyte …: TPLGPASSLPQSFLLKCLEQVRKIQGDGAALQEKLVSECATYKLCHPEELVLLGHSLGIPWAPLSSCPSQALQLAGCLSQLHSGLFLYQGLLQALEGISPELGPTLDTLQLDVADFATTIWQQMEELGMAPALQPTQGAMPAFASAFQRRAGGVLVASHLQSFLEVSYRVLRHLAQP
modifications: amine PEGylation
notes: GCSF modified using conventional amine-PEGylation technologies
- reduction of bioactivity [8]: 1,000 fold
